Reference: ChEMBL document CHEMBL1201862, “PubChem BioAssay data set” (2004)
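Dose response: 5 concentrations. Exposure: 48 h. Format: 96-well plates. Endpoint: linear interpolation; highest concentration if not reached. Abbreviation: GI50, concentration required for 50% inhibition of growth.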 Activity calls are given as the source filed them. Cut-off read from the data, not from the text of the source: active = GI50 up to about 1.1 µM and inactive = higher.

Experiments:
Experiment in all cases: NCI tumour cell line growth inhibition, 48 h
A549 = tested on: A549
HCT-116 = tested on: HCT-116
OVCAR-4 = tested on: OVCAR-4
SR = tested on: SR
SK-OV-3 = tested on: SK-OV-3
SK-MEL-2 = tested on: SK-MEL-2
BT-549 = tested on: BT-549
RXF 393 = tested on: RXF 393
ACHN = tested on: ACHN
HCT-15 = tested on: HCT-15
U-251 = tested on: U-251
NCI-H522 = tested on: NCI-H522
HL-60 = tested on: HL-60
NCI-H226 = tested on: NCI-H226
T47D = tested on: T47D
HOP-92 = tested on: HOP-92
MDA-MB-231 = tested on: MDA-MB-231
DU-145 = tested on: DU-145
LOX IMVI = tested on: LOX IMVI
OVCAR-3 = tested on: OVCAR-3

Row | Compound | GI50 (A549) | GI50 (HCT-116) | GI50 (OVCAR-4) | GI50 (SR) | GI50 (SK-OV-3) | GI50 (SK-MEL-2) | GI50 (BT-549) | GI50 (RXF 393) | GI50 (ACHN) | GI50 (HCT-15) [µM] | GI50 (U-251) | GI50 (NCI-H522) | GI50 (HL-60) | GI50 (NCI-H226) | GI50 (T47D) | GI50 (HOP-92) | GI50 (MDA-MB-231) | GI50 (DU-145) | GI50 (LOX IMVI) | GI50 (OVCAR-3)
1 | COc1ccc(-c2c(N)n(-c3cc(OC)cc(OC)c3)c(=O)c3cc([N+](=O)[O-])ccc23)cc1 | > 100 µM (inactive) | 21.9 µM (inactive) | 18.2 µM (inactive) | 27.4 µM (inactive) | > 100 µM (inactive) | > 100 µM (inactive) | 19.2 µM (inactive) | 11.1 µM (inactive) | > 100 µM (inactive) | > 54.5 | > 100 µM (inactive) | 5.19 µM (inactive) | 2.47 µM (inactive) | > 36.1 µM (inactive) | 7.4 µM (inactive) | 3.21 µM (inactive) | 28.6 µM (inactive) | > 100 µM (inactive) | 24.7 µM (inactive) | 24.4 µM (inactive)
2 | OC1(c2ccccc2)c2ccccc2N=C2NCCN21 (stereo not given) | > 100 µM (inactive) | 83.9 µM (inactive) | > 100 µM (inactive) | 0.192 µM (active) | > 100 µM (inactive) | > 100 µM (inactive) | > 100 µM (inactive) | 82.6 µM (inactive) | > 100 µM (inactive) | 93.1 | 91.8 µM (inactive) | > 100 µM (inactive) | 44.1 µM (inactive) | > 100 µM (inactive) | 65.6 µM (inactive) | 54.5 µM (inactive) | > 100 µM (inactive) | > 100 µM (inactive) | 23.4 µM (inactive) | > 100 µM (inactive)
3 | CC1=NN(c2nc(N)nc(COCc3nc(N)nc(N4N=C(C)CC4(C)C)n3)n2)C(C)(C)C1 | > 100 µM (inactive) | > 100 µM (inactive) | > 100 µM (inactive) | > 100 µM (inactive) | > 100 µM (inactive) | > 100 µM (inactive) | > 100 µM (inactive) | > 100 µM (inactive) | > 100 µM (inactive) | > 100 | > 100 µM (inactive) | > 100 µM (inactive) | > 100 µM (inactive) | > 100 µM (inactive) | > 100 µM (inactive) | > 100 µM (inactive) | > 100 µM (inactive) | > 100 µM (inactive) | > 100 µM (inactive) | > 100 µM (inactive)
4 | CC1(C)O[C@@H]2C[C@H]3[C@@H]4C[C@H](F)C5=CC(=O)C=C[C@]5(C)[C@@]4(F)[C@@H](O)C[C@]3(C)[C@]2(C(=O)CO)O1 [FLUOCINOLONE ACETONIDE] | > 100 µM (inactive) | > 100 µM (inactive) | > 89.1 µM (inactive) | > 100 µM (inactive) | > 72.3 µM (inactive) | > 100 µM (inactive) | > 100 µM (inactive) | > 100 µM (inactive) | > 100 µM (inactive) | > 100 | > 100 µM (inactive) | > 100 µM (inactive) | > 100 µM (inactive) | > 85.1 µM (inactive) | > 100 µM (inactive) | > 100 µM (inactive) | > 100 µM (inactive) | > 100 µM (inactive) | > 100 µM (inactive) | > 100 µM (inactive)
5 | CC(C)[Si](OC1=C(C(=O)Nc2ccccc2Cl)CCCCC1)(C(C)C)C(C)C | > 100 µM (inactive) | > 100 µM (inactive) | > 100 µM (inactive) | > 100 µM (inactive) | > 100 µM (inactive) | > 100 µM (inactive) | > 100 µM (inactive) | > 100 µM (inactive) | > 100 µM (inactive) | > 100 | > 100 µM (inactive) | > 100 µM (inactive) | 1.97 µM (inactive) | > 100 µM (inactive) | > 100 µM (inactive) | > 100 µM (inactive) | > 100 µM (inactive) | > 100 µM (inactive) | > 100 µM (inactive) | > 100 µM (inactive)
